From patent publication US20200181117A1, “SUBSTITUTED 3-HETEROARYLOXY-1H-PYRAZOLES AND SALTS THEREOF AND THEIR USE AS HERBICIDAL ACTIVE SUBSTANCES” (BAYER CROPSCIENCE AKTIENGESELLSCHAFT, priority 2017, published 2020)

Experiments:
Format in all cases: in vivo
[1] = test system: Amaranthus retroflexus; experiment: Post-emergence herbicidal action; conditions: 1280 g/ha, rated visually after about 3 weeks vs untreated controls
Method: (§1) A. Post-Emergence Herbicidal Action and Crop Plant Compatibility Seeds of monocotyledonous and dicotyledonous weeds and crop plants were placed in sandy loam in plastic or wood-fiber pots, covered with soil and cultivated in a greenhouse under controlled growth conditions. 2 to 3 weeks after sowing, the test plants were treated at the one-leaf stage. The compounds of the invention, formulated in the form of wettable powders (WP) or as emulsion concentrates (EC), were then sprayed onto the green parts of the plants as aqueous suspension or emulsion with addition of 0.5% additive at a water application rate of 600 l/ha (converted). After the test plants had been kept in the greenhouse under optimum growth conditions for about 3 weeks, the activity of the preparations was rated visually in comparison to untreated controls. For example, 100% activity=the plants have died, 0% activity=like control plants. Tables B1 to B15 below show the effects of selected compounds of the general formula (I) according to Table I on various harmful plants and an application rate corresponding to 1280 g/ha, which were obtained by the experimental procedure mentioned above.

[2] = test system: Polygonum convolvulus; experiment: Post-emergence herbicidal action; conditions: 1280 g/ha, rated visually after about 3 weeks vs untreated controls
Method: as §1

[3] = test system: Viola tricolor; experiment: Post-emergence herbicidal action; conditions: 1280 g/ha, rated visually after about 3 weeks vs untreated controls
Method: as §1

[4] = test system: Amaranthus retroflexus; experiment: Pre-emergence herbicidal action; conditions: 1280 g/ha, scored visually after about 3 weeks vs untreated controls
From the text: (§2) Pre-Emergence Herbicidal Action and Crop Plant Compatibility Seeds of monocotyledonous and dicotyledonous weed plants and crop plants were placed in plastic or wood fiber pots and covered with soil. The compounds of the invention, formulated in the form of wettable powders (WP) or as emulsion concentrates (EC), were then applied onto the surface of the covering soil as aqueous suspension or emulsion with addition of 0.5% additive at a water application rate of 600 l/ha (converted). After the treatment, the pots were placed in a greenhouse and kept under good growth conditions for the test plants. After about 3 weeks, the effect of the preparations was scored visually in comparison with untreated controls as percentages. For example, 100% activity=the plants have died, 0% activity=like control plants. Tables C1 to C14 below show the effects of selected compounds of the general formula (I) according to Table I on various harmful plants and an application rate corresponding to 1280 g/ha, which were obtained by the experimental procedure mentioned above.

[5] = test system: Polygonum convolvulus; experiment: Pre-emergence herbicidal action; conditions: 1280 g/ha, scored visually after about 3 weeks vs untreated controls
From the text: as §2

[6] = test system: Setaria viridis; experiment: Pre-emergence herbicidal action; conditions: 1280 g/ha, scored visually after about 3 weeks vs untreated controls
From the text: as §2

[7] = test system: Stellaria media; experiment: Pre-emergence herbicidal action; conditions: 1280 g/ha, scored visually after about 3 weeks vs untreated controls
From the text: as §2

[8] = test system: Veronica persica; experiment: Pre-emergence herbicidal action; conditions: 1280 g/ha, scored visually after about 3 weeks vs untreated controls
From the text: as §2

[9] = test system: Viola tricolor; experiment: Pre-emergence herbicidal action; conditions: 1280 g/ha, scored visually after about 3 weeks vs untreated controls
From the text: as §2

[10] = test system: Matricaria inodora; experiment: Pre-emergence herbicidal action; conditions: 1280 g/ha, scored visually after about 3 weeks vs untreated controls
From the text: as §2

[11] = test system: Abutilon theophrasti; experiment: Pre-emergence herbicidal action; conditions: 1280 g/ha, scored visually after about 3 weeks vs untreated controls
From the text: as §2

[12] = test system: Echinochloa crus-galli; experiment: Pre-emergence herbicidal action; conditions: 1280 g/ha, scored visually after about 3 weeks vs untreated controls
From the text: as §2

[13] = test system: Abutilon theophrasti; experiment: Post-emergence herbicidal action; conditions: 1280 g/ha, rated visually after about 3 weeks vs untreated controls
Method: as §1

[14] = test system: Pharbitis purpurea; experiment: Post-emergence herbicidal action; conditions: 1280 g/ha, rated visually after about 3 weeks vs untreated controls
Method: as §1

[15] = test system: Setaria viridis; experiment: Post-emergence herbicidal action; conditions: 1280 g/ha, rated visually after about 3 weeks vs untreated controls
Method: as §1

[16] = test system: Stellaria media; experiment: Post-emergence herbicidal action; conditions: 1280 g/ha, rated visually after about 3 weeks vs untreated controls
Method: as §1

[17] = test system: Alopecurus myosuroides; experiment: Pre-emergence herbicidal action; conditions: 1280 g/ha, scored visually after about 3 weeks vs untreated controls
From the text: as §2

[18] = test system: Alopecurus myosuroides; experiment: Post-emergence herbicidal action; conditions: 1280 g/ha, rated visually after about 3 weeks vs untreated controls
Method: as §1

[19] = test system: Avena fatua; experiment: Pre-emergence herbicidal action; conditions: 1280 g/ha, scored visually after about 3 weeks vs untreated controls
From the text: as §2

[20] = test system: Hordeum murinum; experiment: Pre-emergence herbicidal action; conditions: 1280 g/ha, scored visually after about 3 weeks vs untreated controls
From the text: as §2

[21] = test system: Lolium rigidum; experiment: Pre-emergence herbicidal action; conditions: 1280 g/ha, scored visually after about 3 weeks vs untreated controls
From the text: as §2

Structure (SMILES) | herbicidal activity on Amaranthus retroflexus [1] | herbicidal activity on Polygonum convolvulus [2] | herbicidal activity on Viola tricolor [3] | herbicidal activity on Amaranthus retroflexus [4] | herbicidal activity on Polygonum convolvulus [5] | herbicidal activity on Setaria viridis [6] | herbicidal activity on Stellaria media [7] | herbicidal activity on Veronica persica [8] | herbicidal activity on Viola tricolor [9] | herbicidal activity on Matricaria inodora [10] | herbicidal activity on Abutilon theophrasti [11] | herbicidal activity on Echinochloa crus-galli [12] | herbicidal activity on Abutilon theophrasti [13] | herbicidal activity on Alopecurus myosuroides [17] | other results
CCn1cc(Sc2ccc(F)cc2)c(Oc2ncc(Cl)cn2)n1 [Example I-121] | 80% | 80% | 80% | 100% | 90% | 90% | 80% | 100% | 100% |  |  |  |  |  | 
CCn1cc(Sc2ccccc2)c(Oc2ncccn2)n1 [Example I-042] |  | 80% |  | 80% |  | 80% | 100% | 100% | 90% | 90% |  |  |  |  | 
CCn1cc(Sc2ccc(Cl)cc2)c(Oc2ncc(F)cn2)n1 [Example I-160] |  |  | 100% |  | 80% |  |  | 100% | 100% |  |  |  |  |  | 
COc1cnc(Oc2nn(C)c(C)c2Sc2ccc(F)cc2Cl)nc1 [Example I-156] | 100% | 80% | 100% | 100% | 100% | 100% | 100% |  | 100% | 100% | 90% | 80% |  |  | 
CCc1c(Sc2cccc(F)c2)c(Oc2ncc(F)cn2)nn1C [Example I-203] | 100% |  | 100% | 100% | 80% | 100% | 80% | 100% | 90% | 80% | 90% | 80% | 100% | 90% | herbicidal activity on Pharbitis purpurea [14]: 90%; herbicidal activity on Setaria viridis [15]: 90%; herbicidal activity on Stellaria media [16]: 90%
CCn1cc(Sc2ccccc2)c(Oc2ncc(Cl)cn2)n1 [Example I-138] |  |  | 80% |  | 80% | 100% |  | 100% | 90% |  | 80% |  |  |  | 
CCc1c(Sc2cccc(Cl)c2)c(Oc2ncc(F)cn2)nn1C [Example I-034] | 100% |  | 100% | 100% |  | 100% | 90% |  | 100% |  | 80% |  | 80% |  | herbicidal activity on Pharbitis purpurea [14]: 90%
CCc1c(Sc2cccc(Cl)c2)c(Oc2ncccn2)nn1C [Example I-035] |  | 100% | 100% | 90% |  | 90% |  |  | 100% |  |  |  | 100% |  | herbicidal activity on Stellaria media [16]: 80%
Cn1cc(Sc2ccc(Cl)cc2)c(Oc2cnc(Cl)nc2)n1 [Example I-230] |  |  | 80% |  |  |  |  |  |  |  |  |  |  |  | 
CCc1c(Sc2ccccc2)c(Oc2ncccn2)nn1C [Example I-063] | 100% |  | 100% | 100% | 100% | 100% | 90% |  | 100% | 100% | 100% | 100% | 100% | 100% | herbicidal activity on Alopecurus myosuroides [18]: 100%; herbicidal activity on Setaria viridis [15]: 80%; herbicidal activity on Avena fatua [19]: 100%; herbicidal activity on Hordeum murinum [20]: 100%
Cc1ccnc(Oc2nn(C)c(C)c2Sc2cccc(Cl)c2)n1 [Example I-096] |  |  |  | 100% | 100% | 100% | 90% | 100% | 100% | 100% | 100% | 80% | 80% | 100% | 
CC(C)n1cc(Sc2ccc(F)cc2)c(Oc2ncccn2)n1 [Example I-039] |  |  | 100% | 100% | 90% | 90% | 100% | 100% | 100% | 90% | 100% |  |  | 100% | herbicidal activity on Avena fatua [19]: 90%
CCc1c(Sc2ccc(F)cc2)c(Oc2ncccn2)nn1C [Example I-064] | 100% | 100% | 100% | 100% | 100% | 100% | 100% | 100% | 100% | 90% | 100% | 90% | 80% | 90% | herbicidal activity on Setaria viridis [15]: 100%; herbicidal activity on Stellaria media [16]: 100%
Cc1c(Sc2ccc(F)cc2F)c(Oc2ncc(F)cn2)nn1C [Example I-115] | 100% | 90% | 100% | 100% | 90% | 100% | 90% | 100% | 100% | 90% | 100% | 100% | 100% | 90% | herbicidal activity on Setaria viridis [15]: 100%; herbicidal activity on Stellaria media [16]: 100%; herbicidal activity on Lolium rigidum [21]: 80%
